Data taken from ChEMBL document CHEMBL1148661, “SAR studies: designing potent and selective LXR agonists” (Bioorg Med Chem Lett, 2006).

Experiments:
[1] = molecular target: T1, Oxysterols receptor LXR-alpha (Homo sapiens, UniProt Q13133); assay type: functional, cell-based, CHO
T1 sequence (Q13133 whole entry): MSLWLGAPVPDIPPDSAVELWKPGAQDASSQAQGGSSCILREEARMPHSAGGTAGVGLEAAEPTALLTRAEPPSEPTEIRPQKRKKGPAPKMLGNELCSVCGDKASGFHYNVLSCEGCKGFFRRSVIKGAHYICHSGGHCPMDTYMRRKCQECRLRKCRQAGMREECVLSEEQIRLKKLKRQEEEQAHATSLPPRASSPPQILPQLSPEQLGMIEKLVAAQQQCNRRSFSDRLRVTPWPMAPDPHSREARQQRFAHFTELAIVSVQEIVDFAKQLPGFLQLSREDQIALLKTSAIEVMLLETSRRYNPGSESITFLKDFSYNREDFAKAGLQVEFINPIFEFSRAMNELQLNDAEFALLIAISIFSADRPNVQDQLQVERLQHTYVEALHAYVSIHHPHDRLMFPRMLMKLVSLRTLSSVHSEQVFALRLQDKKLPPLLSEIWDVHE

[2] = molecular target: T2, Oxysterols receptor LXR-beta (Homo sapiens, UniProt P55055); assay type: functional, cell-based, CHO
T2 sequence (P55055 whole entry): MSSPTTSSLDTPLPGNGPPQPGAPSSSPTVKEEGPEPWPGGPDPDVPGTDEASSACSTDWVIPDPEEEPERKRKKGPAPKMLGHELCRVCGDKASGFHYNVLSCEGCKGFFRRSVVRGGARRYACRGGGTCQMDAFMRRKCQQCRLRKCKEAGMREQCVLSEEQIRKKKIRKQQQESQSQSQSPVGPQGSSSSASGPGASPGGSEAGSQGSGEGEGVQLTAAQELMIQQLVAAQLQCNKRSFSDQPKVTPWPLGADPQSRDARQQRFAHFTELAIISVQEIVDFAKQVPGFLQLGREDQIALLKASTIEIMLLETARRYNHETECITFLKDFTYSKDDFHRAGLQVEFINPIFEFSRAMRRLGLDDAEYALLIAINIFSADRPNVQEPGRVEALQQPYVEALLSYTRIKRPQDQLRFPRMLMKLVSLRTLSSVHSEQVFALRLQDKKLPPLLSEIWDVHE

[3] = molecular target: T1, Oxysterols receptor LXR-alpha
[4] = molecular target: T3, Peroxisome proliferator-activated receptor alpha (Homo sapiens, UniProt Q07869)
T3 sequence (Q07869 whole entry): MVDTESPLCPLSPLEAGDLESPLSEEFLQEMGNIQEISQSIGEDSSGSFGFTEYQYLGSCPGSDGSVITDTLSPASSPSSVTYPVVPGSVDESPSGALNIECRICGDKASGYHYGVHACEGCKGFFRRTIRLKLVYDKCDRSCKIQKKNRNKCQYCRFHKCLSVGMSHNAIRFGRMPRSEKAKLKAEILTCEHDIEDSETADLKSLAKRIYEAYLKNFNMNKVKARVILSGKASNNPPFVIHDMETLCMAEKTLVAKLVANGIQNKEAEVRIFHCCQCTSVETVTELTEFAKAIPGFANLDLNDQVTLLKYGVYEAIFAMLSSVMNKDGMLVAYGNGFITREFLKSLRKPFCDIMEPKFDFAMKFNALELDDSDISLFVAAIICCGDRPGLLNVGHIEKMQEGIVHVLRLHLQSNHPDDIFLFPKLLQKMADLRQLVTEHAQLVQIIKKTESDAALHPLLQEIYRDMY

[5] = molecular target: T4, Peroxisome proliferator-activated receptor delta (Homo sapiens, UniProt Q03181)
T4 sequence (Q03181 whole entry): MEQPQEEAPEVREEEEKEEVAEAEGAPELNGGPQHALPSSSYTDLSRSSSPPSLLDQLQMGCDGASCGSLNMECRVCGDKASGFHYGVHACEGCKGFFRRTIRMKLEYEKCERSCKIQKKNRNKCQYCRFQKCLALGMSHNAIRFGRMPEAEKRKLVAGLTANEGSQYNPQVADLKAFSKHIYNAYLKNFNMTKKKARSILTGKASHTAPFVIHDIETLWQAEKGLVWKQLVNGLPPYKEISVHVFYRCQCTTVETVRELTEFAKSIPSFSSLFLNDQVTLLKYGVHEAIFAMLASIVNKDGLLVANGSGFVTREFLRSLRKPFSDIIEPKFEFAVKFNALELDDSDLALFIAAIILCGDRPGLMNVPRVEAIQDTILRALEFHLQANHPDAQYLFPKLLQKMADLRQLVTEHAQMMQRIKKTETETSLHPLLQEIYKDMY

[6] = molecular target: T2, Oxysterols receptor LXR-beta
[7] = in vivo; settings: mouse
[8] = in vivo; settings: mouse, iv, 0.5 mg/kg
[9] = species on record: Mus musculus; settings: in vivo
[10] = molecular target: T5, Nuclear receptor subfamily 1 group I member 2 (Homo sapiens, UniProt O75469)
T5 sequence (O75469 whole entry): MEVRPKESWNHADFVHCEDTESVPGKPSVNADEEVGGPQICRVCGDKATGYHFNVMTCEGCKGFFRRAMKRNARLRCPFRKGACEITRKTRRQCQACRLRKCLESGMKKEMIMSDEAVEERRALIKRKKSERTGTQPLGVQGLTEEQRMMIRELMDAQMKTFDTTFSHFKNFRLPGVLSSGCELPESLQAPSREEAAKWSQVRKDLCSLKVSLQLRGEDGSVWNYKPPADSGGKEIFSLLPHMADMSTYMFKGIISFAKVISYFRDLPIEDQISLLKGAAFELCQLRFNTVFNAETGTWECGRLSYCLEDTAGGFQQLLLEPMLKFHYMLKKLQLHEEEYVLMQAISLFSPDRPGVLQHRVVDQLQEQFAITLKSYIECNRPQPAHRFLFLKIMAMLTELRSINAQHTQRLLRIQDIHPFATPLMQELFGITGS

[11] = in vivo; settings: mouse, iv, 0.5 mg/kg; remark: listed apart in the source

Row | Compound | EC50 [1] [µM] | EC50 [2] [µM] | IC50 [3] [µM] | IC50 [4] [µM] | IC50 [5] [µM] | IC50 [6] [µM] | half-life [7] [h] | Vd [8] [L/kg] | AUC [9] [µM·kg·h/mg] | IC50 [10] [µM] | clearance [11] [mL/min/kg]
1 | CCCc1c(OCCCN(C)c2ccccc2)ccc2c(C(F)(F)F)noc12 |  |  | 0.372 |  |  | 0.428 |  |  |  |  | 
2 | CCCc1c(OCCCN2C(=O)Cc3cc(C(=O)O)ccc32)ccc2c(C(F)(F)F)noc12 | 3 | 4.4 | 0.097 |  |  | 0.7 |  |  |  |  | 
3 | CCCc1c(OCCCN2C(=O)Cc3cc(CC(=O)O)ccc32)ccc2c(C(F)(F)F)noc12 | 0.18 | 0.14 | 0.019 |  |  | 0.013 | 1 | 2.9 | 1 | > 10 | 46
4 | CCCc1c(OCCCn2ccc3cc(CCC(=O)O)ccc32)ccc2c(C(F)(F)F)noc12 | 0.82 | 0.7 | 0.018 | 0.45 | 0.07 | 0.006 |  |  |  |  | 
5 | CCCc1c(OCCCn2nnc3cc(CC(=O)O)ccc32)ccc2c(C(F)(F)F)noc12 | 2.3 | 1.7 | 0.41 | 4.4 |  | 0.35 |  |  |  |  | 
6 | CCCc1c(OCCCN(C)c2ccc(CC(=O)O)c(Cl)c2)ccc2c(C(F)(F)F)noc12 | 0.17 | 0.124 | 0.012 |  | 1.4 | 0.01 |  |  |  |  | 
7 | CCCc1c(OCCCn2cnc3cc(CC(=O)O)ccc32)ccc2c(C(F)(F)F)noc12 |  | 8.6 | 0.18 |  | 1.8 | 0.41 |  |  |  |  | 
8 | CCCc1c(OCCCOc2ccc(CC(=O)O)cc2Cl)ccc2c(C(F)(F)F)noc12 |  | 9.7 | 0.039 | 0.23 |  | 0.065 |  |  |  |  | 
9 | CCCc1c(OCCCn2ncc3cc(CC(=O)O)ccc32)ccc2c(C(F)(F)F)noc12 | 0.48 | 0.58 | 0.073 | 0.78 |  | 0.087 |  |  |  |  | 
10 | CCCc1c(OCCCN(C)c2ncc(CC(=O)O)cn2)ccc2c(C(F)(F)F)noc12 | 0.62 | 0.47 | 0.026 |  |  | 0.055 |  |  |  |  | 
11 | CCCc1c(OCCCSc2ccc(CC(=O)O)cc2Cl)ccc2c(C(F)(F)F)noc12 | 5.9 |  | 0.032 | 0.28 | 0.004 |  |  |  |  |  | 
12 | CCCc1c(OCCCn2ccc3cc(C(=O)O)ccc32)ccc2c(C(F)(F)F)noc12 | 1.9 | 2.8 | 0.072 | 8.3 |  | 0.199 |  |  |  |  | 
13 | CCCc1c(OCCCN(C)c2cnc(CC(=O)O)cn2)ccc2c(C(F)(F)F)noc12 | 0.54 | 0.15 | 0.09 |  |  | 0.04 | 2.1 | 2.8 | 7.5 |  | 17
14 | CCCc1c(OCCCN(C)c2ncc(CC(=O)O)s2)ccc2c(C(F)(F)F)noc12 | 1.1 | 0.65 | 0.067 |  |  | 0.1 | 1.2 | 1.2 | 3.1 |  | 13
15 | CCCc1c(OCCCN(C)c2ccc(CC(=O)O)c(C(F)(F)F)c2)ccc2c(C(F)(F)F)noc12 | 3.6 | 1.3 | 0.06 | 0.14 | 0.54 | 0.018 |  |  |  |  | 
16 | CCCc1c(OCCCn2ccc3cc(CC(=O)O)ccc32)ccc2c(C(F)(F)F)noc12 | 0.59 | 0.45 | 0.016 | 0.4 |  | 0.016 | 3.9 | 2.7 | 2.7 |  | 18
17 | CCCc1c(OCCCN(C)c2ccc(CC(=O)O)c(C)c2)ccc2c(C(F)(F)F)noc12 | 1.3 | 0.303 | 0.117 | 0.87 | 0.15 | 0.026 |  |  |  |  | 
18 | O=C(O)Cc1cccc(OCCCN(Cc2cccc(C(F)(F)F)c2Cl)CC(c2ccccc2)c2ccccc2)c1 |  |  |  |  |  |  | 3.4 | 1.2 | 2 |  | 8

The next lines start with the values.

Row | EC50 [1] [µM] | EC50 [2] [µM] | IC50 [3] [µM] | IC50 [4] [µM] | IC50 [5] [µM] | IC50 [6] [µM] | half-life [7] [h] | Vd [8] [L/kg] | AUC [9] [µM·kg·h/mg] | IC50 [10] [µM] | clearance [11] [mL/min/kg] | Compound
19 | 0.45 | 0.36 | 0.018 | 0.31 | 0.31 | 0.025 |  |  |  |  |  | CCCc1c(OCCCN(C)c2ccc(CC(=O)O)cc2)ccc2c(C(F)(F)F)noc12
20 |  |  | 6.4 |  |  |  |  |  |  |  |  | CCCc1c(OCCCN(C(C)=O)c2ccc(CC(=O)O)cc2)ccc2c(C(F)(F)F)noc12
21 | 8 | 7.7 | 0.068 | 0.016 | 0.088 | 0.089 |  |  |  |  |  | CCCc1c(OCCCNc2ccc(CC(=O)O)cc2)ccc2c(C(F)(F)F)noc12
22 | 6 | 5.1 | 0.079 |  |  | 0.19 |  |  |  |  |  | CCCc1c(OCCCN(C)c2ccc(C(=O)O)cc2)ccc2c(C(F)(F)F)noc12
23 | 5 |  | 0.105 |  |  | 0.63 |  |  |  |  |  | CCCc1c(OCCCN(C)c2ccc(CC(=O)O)cn2)ccc2c(C(F)(F)F)noc12
24 | 2.6 | 3.5 | 0.102 | 1.5 | 0.093 | 0.098 |  |  |  |  |  | CCCc1c(OCCCN(C)c2cccc(CC(=O)O)c2)ccc2c(C(F)(F)F)noc12
25 |  |  | 0.11 | 2.6 | 8.6 | 0.14 |  |  |  |  |  | CCCc1c(OCCCN(CC)c2ccc(CC(=O)O)cc2)ccc2c(C(F)(F)F)noc12
26 |  |  | 0.58 | 0.6 |  | 0.32 |  |  |  |  |  | CCCc1c(OCCCN(C)c2ccc(CC(=O)O)cc2C)ccc2c(C(F)(F)F)noc12
27 |  |  | 6.4 |  |  |  |  |  |  |  |  | CCCc1c(OCCCN(C=O)c2ccc(CC(=O)O)cc2)ccc2c(C(F)(F)F)noc12
28 |  |  | 0.53 |  |  | 0.97 |  |  |  |  |  | CCCc1c(OCCCCc2ccc(CC(=O)O)cc2)ccc2c(C(F)(F)F)noc12
29 |  |  | 0.73 | 0.019 | 0.008 | 0.1 |  |  |  |  |  | CCCc1c(OCCCOc2ccc(CC(=O)O)cc2)ccc2c(C(F)(F)F)noc12
30 |  |  | 0.63 |  | 0.049 | 0.17 |  |  |  |  |  | CCCc1c(OCCCN(C)c2ccc(CC(=O)O)cc2Cl)ccc2c(C(F)(F)F)noc12
